Test results taken from patent US11787781B2, “Inhibiting ataxia telangiectasia and RAD3-related protein (ATR)” (Celator Pharmaceuticals, Inc., priority 2016, dated 2023).

Key:
pKa = assay type: physicochemical; settings: method not stated
[1] = Loading of ATR inhibitors into TEA-SOS liposomes and liposome characterization; assay type: physicochemical
Procedure: Sodium sucrose octasulfate (equivalent weight 144.8) is a sodium salt of sucrose derivate in which all hydroxyl groups have formed sulfuric acid esters. Sixty gram of sucrose octasulfate (SOS) sodium salt were dissolved in 150 ml of di water, heated with shaking (swirling) of a 50° C. water bath. The solution was passed through a column packed with sulfonated polystyrene divinylbenzene copolymer cation exchange resin beads (Dowex 50Wx8-100-200 mesh, Dow Chemical Co.). […] The eluent was monitored using a conductivity detector. The SOS fraction was collected corresponding to conductivity peak and immediately titrated with neat triethylamine (TEA) solution to pH 6-6.5. The solution was analyzed for residual sodium by potentiometry using a sodium-sensitive electrode and for SOS concentration using a refractometer. The solution having residual sodium less than 0.25% was diluted with di water to final SOS concentration 1.1 M and then sterile-filtered using Millipore 0.22 μm Steri-Top filter.
Cholesterol (Chol) was purchased from Avanti Polar Lipids, Alabaster, Ala., USA, hydrogenated soy phosphocholine (HSPC) and methoxy-poly(ethylene glycol)-1,2-distearoyl-sn-glyceryl (PEG2000-DSG) were obtained from Lipoid GmbH, Ludwigshafen, Germany.
Chol, HSPC and PEG2000-DSG were co-dissolved in 100% ethanol (200-proof, Sigma cat #: 459828) at a molar ratio of 3:2:0.15 at 65° C. The solution of TEA-SOS (10 times the volume of added ethanol) was mixed with the lipid solution at 60-65° C. and stirred at this temperature until a homogeneous milky suspension of multilamellar vesicles was formed. This suspension was extruded 3 times through 5 stacked polycarbonate track-etched filters (Corning Nuclepore) with the pore size of 100 nm using argon pressure extruder (Lipex Biomembranes) at 60-65° C., and resulting unilamellar liposomes were quickly chilled in ice and then stored at 4-6° C. before use. Concentration of phospholipids was measured by phosphate assay and particle diameter was recorded on a Malvern Nanosizer.
Prior to drug loading, the TEA-SOS gradient was created by removing excess of un-trapped TEA-SOS using gel-chromatography (Sepharose CL-4B, Pharmacia). Osmolarity of liposomes was balanced using 50% dextrose solution. Final dextrose concentration was 15%.
ATR inhibitors were dissolved in 15% dextrose solutions in di water by titration with 1 M HCl and heating at 45° C. and then filtered with 0.2 micron NALGENE 13 mm Syringe Filters. Drug concentration in the solution was detected by HPLC. […]
The liposome-drug mixture was incubated with occasional agitation for 30 minutes at 65° C. The incubation mixture was quickly cooled down and incubated for 10 minutes at 0° C., then allowed to attain ambient temperature. Un-encapsulated drug was removed by gel chromatography on Sephadex G-25 (Amersham Pharmacia) eluted with HBS-6.5 buffer (5 mM 2-(4-(2-hydroxyethyl)-piperazino)-ethylsulfonic acid (HEPES), 144 mM NaCl, pH 6.5). Liposome fractions eluted in the void volume were combined, sterilized by 0.2 micron filtration, and stored at 4-6° C. before use. The liposomes were characterized by lipid concentration, drug concentration, and particle size (Table 2).

ATR/ATRIP(h) = ATR/ATRIP(h) (Homo sapiens (Human), UniProt Q13535); assay: Eurofins ATR/ATRIP HTRF assay, p53 Ser15 phosphorylation; assay type: biochemical; set-up: key to Top / Bottom: % of DMSO positive control activity; settings: ATP 10 μM
Procedure: An EC50 determination was conducted for the supplied set of compounds against the kinase ATR/ATRIP(h), using a linear enzyme concentration in the Eurofins ATR/ATRIP HTRF assay using GST tagged full length p53 as the substrate.
ATR/ATRIP phosphorylation of p53 on Ser15 was measured via formation of an energy transfer complex consisting of a Europium-labelled anti-phospho Ser15 p53 antibody and an anti-GST-d2 antibody. All data points were performed in duplicate with DMSO controls and EDTA blanks.
ATR/ATRIP(h) was pre-diluted in 25 mM HEPES pH 8.0, 0.01% Brij-35, 1% Glycerol, 5 mM DTT, 1 mg/mL BSA and assayed in 25 mM HEPES pH 8.0, 0.01% Brij-35, 1% Glycerol, 10 mM MnCl2 using 30 nM GST, cMyc p53-(hu,FL) as the substrate. The reaction was initiated with the addition of ATP to a final concentration of 10 μM.
The individual replicates were expressed in terms of the % of the DMSO positive control activity. The mean activity (% control) of each inhibitor concentration was plotted against the inhibitor concentration, and EC50 values were determined using […] PRISM.
The data expressed as % control activity were plotted against inhibitor concentration, and fitted to a four parameter logistic using […] PRISM. Graphs for each compound are shown alongside the data in the accompanying Excel report.

[2] = tested on: total and phospho-ATR (S428), phospho-CHK1 (S317 and S345) in DMS-114 cells; assay: Western blot of total and phospho-ATR, phospho-CHK1 in DMS-114 cells; assay type: cell-based
Procedure: Whole cell protein lysates were generated after 1, 3, 6 and 24 hours using a 2% SDS containing cell lysis buffer and stored at −80° C. until all samples were collected and run together at the same time for the WesternBlot analysis. The following proteins and phosphoproteins of interest were detected by antibodies purchased from Cell Signaling Technology (see methods and materials part below): total and phospho-ATR (S428), phospho-CHK1 (S317 and S345), γH2AX, beta-actin.
All target and phospho-specific antibodies were purchased from Cell Signaling and/or Epitomics and were used at 1:1000 dilutions. A list of all antibodies is available in Table 6. Standard antibody based Western blot and immunohistochemistry protocols were used. Briefly, 2% SDS based cell lysis buffer was used to collect whole cell lysate for Western Blotting. Secondary antibodies and staining protocols were purchased and followed regarding LiCor Biosciences and/or BD Bioscience.
Cells were grown and treated in a 6 cm dish scale. To harvest cells, medium was removed and quickly replaced by ice cold PBS. PBS was then replaced with 250 μL of 2% SDS lysis buffer. After five minutes of incubation, the lysed cells were scraped off and loaded onto a cell lysate homogenizer microcentrifuge spin-column (QIAshredder, Qiagen, Cat.-Nr. 79656). The filtrate was then loaded onto a 0.2 μm centrifugal filter column (Nanosep MF 0.2_m, Pall, Cat.-Nr. ODM02C34). The lysates were then stored at −80° C.

[3] = four parameter logistic fit of % control activity

Sequence of ATR/ATRIP(h) (Q13535 whole entry): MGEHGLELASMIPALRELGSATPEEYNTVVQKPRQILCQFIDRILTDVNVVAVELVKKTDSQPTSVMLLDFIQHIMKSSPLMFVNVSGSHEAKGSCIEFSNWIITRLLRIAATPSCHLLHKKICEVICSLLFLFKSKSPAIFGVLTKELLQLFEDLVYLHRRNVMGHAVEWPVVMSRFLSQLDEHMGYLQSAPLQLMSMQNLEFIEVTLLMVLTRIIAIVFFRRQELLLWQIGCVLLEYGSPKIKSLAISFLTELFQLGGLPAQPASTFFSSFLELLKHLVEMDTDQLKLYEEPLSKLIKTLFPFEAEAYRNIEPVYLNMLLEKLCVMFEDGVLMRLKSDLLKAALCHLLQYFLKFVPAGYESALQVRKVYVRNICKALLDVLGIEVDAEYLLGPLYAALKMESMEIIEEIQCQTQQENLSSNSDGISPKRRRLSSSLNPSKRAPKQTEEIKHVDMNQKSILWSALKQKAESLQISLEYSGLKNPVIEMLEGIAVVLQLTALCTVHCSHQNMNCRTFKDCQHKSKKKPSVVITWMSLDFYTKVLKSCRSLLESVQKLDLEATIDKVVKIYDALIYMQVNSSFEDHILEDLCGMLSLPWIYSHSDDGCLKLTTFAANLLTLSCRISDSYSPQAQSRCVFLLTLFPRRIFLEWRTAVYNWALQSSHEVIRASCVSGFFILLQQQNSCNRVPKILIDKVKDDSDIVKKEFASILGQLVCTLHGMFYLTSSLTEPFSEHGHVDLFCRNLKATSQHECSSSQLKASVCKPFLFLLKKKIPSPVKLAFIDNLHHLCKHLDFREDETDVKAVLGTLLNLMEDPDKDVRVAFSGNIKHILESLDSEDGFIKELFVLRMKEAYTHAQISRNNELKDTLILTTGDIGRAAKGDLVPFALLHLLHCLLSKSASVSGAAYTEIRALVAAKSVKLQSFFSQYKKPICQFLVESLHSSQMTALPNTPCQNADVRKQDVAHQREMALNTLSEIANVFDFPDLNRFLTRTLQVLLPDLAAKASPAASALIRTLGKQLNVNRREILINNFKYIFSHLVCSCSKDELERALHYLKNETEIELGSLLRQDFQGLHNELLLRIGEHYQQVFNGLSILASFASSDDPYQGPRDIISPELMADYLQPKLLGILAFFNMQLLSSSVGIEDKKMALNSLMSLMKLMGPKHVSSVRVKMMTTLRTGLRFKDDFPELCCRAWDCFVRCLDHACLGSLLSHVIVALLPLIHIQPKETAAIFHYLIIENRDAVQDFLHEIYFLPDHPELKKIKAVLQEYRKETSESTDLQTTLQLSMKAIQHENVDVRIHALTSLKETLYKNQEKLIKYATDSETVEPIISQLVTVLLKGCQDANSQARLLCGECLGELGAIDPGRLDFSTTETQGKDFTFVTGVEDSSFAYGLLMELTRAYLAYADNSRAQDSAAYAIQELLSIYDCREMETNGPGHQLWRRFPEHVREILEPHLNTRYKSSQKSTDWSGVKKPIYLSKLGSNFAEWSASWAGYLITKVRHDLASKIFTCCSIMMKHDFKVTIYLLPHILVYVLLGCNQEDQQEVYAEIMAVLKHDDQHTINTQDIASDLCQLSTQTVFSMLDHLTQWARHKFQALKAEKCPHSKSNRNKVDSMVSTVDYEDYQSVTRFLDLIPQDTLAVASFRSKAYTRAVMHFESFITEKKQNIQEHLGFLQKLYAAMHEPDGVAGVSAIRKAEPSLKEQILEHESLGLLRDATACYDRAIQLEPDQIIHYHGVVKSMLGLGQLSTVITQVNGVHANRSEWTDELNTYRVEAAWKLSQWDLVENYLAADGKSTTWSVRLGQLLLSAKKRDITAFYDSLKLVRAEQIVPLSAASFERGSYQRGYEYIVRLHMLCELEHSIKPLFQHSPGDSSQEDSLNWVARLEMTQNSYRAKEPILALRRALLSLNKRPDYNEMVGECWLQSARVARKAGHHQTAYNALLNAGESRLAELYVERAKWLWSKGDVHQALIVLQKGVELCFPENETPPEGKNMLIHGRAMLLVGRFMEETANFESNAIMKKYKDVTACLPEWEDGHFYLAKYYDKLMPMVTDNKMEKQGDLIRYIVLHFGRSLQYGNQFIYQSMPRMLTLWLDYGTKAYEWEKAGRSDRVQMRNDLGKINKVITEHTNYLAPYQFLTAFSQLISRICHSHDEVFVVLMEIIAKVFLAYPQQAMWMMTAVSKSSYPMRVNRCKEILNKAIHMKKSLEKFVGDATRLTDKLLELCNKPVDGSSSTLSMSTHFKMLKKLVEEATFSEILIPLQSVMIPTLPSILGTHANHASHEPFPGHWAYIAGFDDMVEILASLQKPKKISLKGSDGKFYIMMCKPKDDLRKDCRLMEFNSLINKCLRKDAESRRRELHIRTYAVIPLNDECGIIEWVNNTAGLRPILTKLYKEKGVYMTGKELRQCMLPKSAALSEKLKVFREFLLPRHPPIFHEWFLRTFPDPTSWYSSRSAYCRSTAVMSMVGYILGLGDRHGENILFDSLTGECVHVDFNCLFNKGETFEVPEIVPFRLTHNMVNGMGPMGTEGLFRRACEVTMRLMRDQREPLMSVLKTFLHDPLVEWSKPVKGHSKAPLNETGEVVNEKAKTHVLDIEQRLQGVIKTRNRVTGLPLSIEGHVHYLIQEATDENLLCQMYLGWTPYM
Sequence of ATR/ATRIP(h) (Q8WXE1 whole entry partner): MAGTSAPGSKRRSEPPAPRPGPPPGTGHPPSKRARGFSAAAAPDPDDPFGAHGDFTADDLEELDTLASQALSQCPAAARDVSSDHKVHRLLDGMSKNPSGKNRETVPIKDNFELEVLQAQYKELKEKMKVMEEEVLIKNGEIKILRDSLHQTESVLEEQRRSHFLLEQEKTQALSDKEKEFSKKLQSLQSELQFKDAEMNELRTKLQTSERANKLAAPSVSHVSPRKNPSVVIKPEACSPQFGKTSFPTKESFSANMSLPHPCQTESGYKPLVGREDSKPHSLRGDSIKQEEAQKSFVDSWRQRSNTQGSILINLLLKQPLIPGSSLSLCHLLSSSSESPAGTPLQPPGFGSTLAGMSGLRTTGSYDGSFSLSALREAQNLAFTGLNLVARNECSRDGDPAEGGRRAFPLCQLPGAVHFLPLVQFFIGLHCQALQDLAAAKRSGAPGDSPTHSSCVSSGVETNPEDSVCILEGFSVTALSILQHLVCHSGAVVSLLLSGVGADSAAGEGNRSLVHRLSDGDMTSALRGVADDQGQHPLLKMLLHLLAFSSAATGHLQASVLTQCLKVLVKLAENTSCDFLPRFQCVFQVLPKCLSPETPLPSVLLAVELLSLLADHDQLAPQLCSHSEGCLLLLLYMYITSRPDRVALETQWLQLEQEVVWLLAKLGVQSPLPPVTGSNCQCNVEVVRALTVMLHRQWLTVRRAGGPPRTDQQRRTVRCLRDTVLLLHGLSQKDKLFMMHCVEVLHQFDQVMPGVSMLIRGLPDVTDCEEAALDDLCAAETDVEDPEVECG

- pKa (pKa): 10
- Loading efficiency (%) ([1]; TEA-SOS liposomes, Compound 1 at ratio before loading 379): 84 ± 8%
- Drug/lipid ratio after loading ([1]; TEA-SOS liposomes, input ratio before loading (Compound 1: 379)): 619 ± 110
- Liposome size, (mean ± SD) nm ([1]; liposomes loaded with the ATR inhibitor): 120 ± 29 nm
- EC50 (ATR/ATRIP(h)): 0.234 µM
- Hill (ATR/ATRIP(h); four parameter logistic fit): −0.819
- Bottom (ATR/ATRIP(h); [3]): 1
- Top (ATR/ATRIP(h); [3]): 95
SMILES: CN(C)CCC1CCN(CCS(=O)(=O)c2ccc(-c3cnc(N)c(C(=O)Nc4ccccc4)n3)cc2)CC1 [Compound 5, 3-amino-6-(4-((2-(4-(2-(dimethylamino)ethyl)piperidin-1-yl)ethyl)sulfonyl)phenyl)-N-phenylpyrazine-2-carboxamide]
- phosphorylation signal of CHK1 (S317 and S345) induced by Gemcitabine ([2]; ATR inhibitor 1 μM added to Gemcitabine 16 nM): abrogates the phosphorylation signal of CHK1
- total and phospho-ATR signal ([2]; ATR inhibitor 1 μM, alone or with Gemcitabine 16 nM, up to 24 hrs): strongly reduced
